{
  "source": "ChEMBL document CHEMBL4813952",
  "about": "“Axial Chiral Binaphthoquinone and Perylenequinones from the Stromata of Hypocrella bambusae Are SARS-CoV-2 Entry Inhibitors” (J Nat Prod, 2021)",
  "note": "The source made the active and inactive calls. No cut-off for these calls is given here.",
  "data": [
    {"tested_on": "Vesicular stomatitis virus", "assay": "Antiviral activity against pseudotype VSV harbouring glycoprotein infected in human 293T/ACE2 cells assessed as inhibition of viral infection measured after 48 hrs by luciferase reporter gene assay", "format": "functional, organism-based", "values": [
      {"smiles": "COc1c2c3c4c(c(OC)c(=O)c5c(O)cc(OC)c(c6c(OC)cc(O)c(c1=O)c63)c54)[C@@H](C(C)=O)[C@@](C)(O)C2", "note": "[HYPOCRELLIN A]", "Activity": "inactive"},
      {"smiles": "COC1=C(CC(C)=O)C(=O)c2c(c(O)cc(OC)c2-c2c(OC)cc(O)c3c2C(=O)C(CC(C)=O)=C(OC)C3=O)C1=O", "Activity": "inactive"},
      {"smiles": "COc1c(O)c2c(=O)cc(OC)c3c4c(OC)cc(=O)c5c(O)c(OC)c6c(c(c1C[C@](C)(O)[C@H]6C(C)=O)c23)c54", "Activity": "inactive"}
    ]}
  ]
}
